Experimental data: ChEMBL document CHEMBL1201862, “PubChem BioAssay data set” (2004)
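Following 48 hours of exposure in 96-well plates, responses at five concentrations were used to interpolate endpoints linearly. The concentration for 50% growth inhibition is given as GI50.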 Calls of active or inactive are those of the source. Cut-off read from the data, not from the text of the source: active = GI50 up to about 1.1 µM and inactive = higher.

Tests used:
Test in all cases: DTP human tumour cell line panel, 48 h
[1] = test system: LOX IMVI
[2] = test system: A549
[3] = test system: NCI-H522
[4] = test system: HT-29
[5] = test system: NCI-H460
[6] = test system: KM12
[7] = test system: SK-MEL-5
[8] = test system: CAKI-1
[9] = test system: HCC 2998
[10] = test system: SR
[11] = test system: Malme-3M
[12] = test system: OVCAR-5
[13] = test system: HOP-62
[14] = test system: HL-60
[15] = test system: ACHN
[16] = test system: EKVX
[17] = test system: A498

Measured: GI50

COC(=O)N/N=C(\c1nc2ccc(Cl)cc2nc1O)C(O)c1ccc([N+](=O)[O-])cc1 (configuration not stated)
inactive: [1] > 100 µM | [2] > 100 µM | [3] > 100 µM | [4] > 100 µM | [5] > 100 µM | [6] > 100 µM | [7] > 100 µM | [8] > 100 µM | [9] > 100 µM | [10] 30.5 µM | [11] > 100 µM | [12] > 100 µM | [13] > 100 µM | [14] > 100 µM

COC(=O)c1oc([N+](=O)[O-])c(-c2ccccc2)c1-c1ccccc1
inactive: [1] 35.5 µM | [2] > 100 µM | [3] > 100 µM | [4] 88.3 µM | [15] > 100 µM | [5] > 100 µM | [6] > 100 µM | [7] 48.3 µM | [16] > 100 µM | [8] > 100 µM | [17] > 100 µM | [9] > 100 µM | [11] > 100 µM | [12] > 100 µM | [13] > 100 µM

COc1ccc(/C=C/C(=O)c2sc(-c3cccnc3)nc2C)cc1
inactive: [1] 25.1 µM | [2] 39.2 µM | [3] 20.5 µM | [4] 36.9 µM | [5] 53.5 µM | [6] 15.3 µM | [7] 30.3 µM | [16] > 100 µM | [8] 49.9 µM | [17] > 100 µM | [9] 37.5 µM | [11] 62.8 µM | [12] > 100 µM | [13] 63.7 µM | [14] 20.4 µM

O=C1C2=C(c3ccccc31)C(c1ccccc1Cl)NC(S)=N2 (configuration not stated)
inactive: [2] 85.1 µM | [3] 31.8 µM | [4] 51.9 µM | [15] 41.8 µM | [5] 72.8 µM | [6] 44.5 µM | [7] 20.2 µM | [16] > 100 µM | [8] 38.2 µM | [17] 61.8 µM | [9] > 100 µM | [11] 39 µM | [12] > 100 µM | [13] > 100 µM | [14] 34 µM

Cc1cc(=O)oc2c(C)c(OCCCOc3ccc4c(C)cc(=O)oc4c3C)ccc12
inactive: [1] > 100 µM | [2] > 100 µM | [3] > 100 µM | [4] > 100 µM | [5] > 100 µM | [6] > 100 µM | [7] > 100 µM | [16] > 100 µM | [8] > 100 µM | [17] > 100 µM | [10] > 100 µM | [11] > 100 µM | [12] > 100 µM | [13] > 100 µM | [14] > 100 µM

O=C(O)[C@H](NS(=O)(=O)c1ccc2ccccc2c1)c1ccccc1
inactive: [1] > 100 µM | [3] > 100 µM | [4] > 100 µM | [15] > 100 µM | [5] > 100 µM | [8] > 100 µM | [17] > 100 µM | [9] > 100 µM | [11] > 100 µM | [12] > 100 µM | [14] > 100 µM

O=CC[C@H]1CCc2ccccc2C12CCC(=O)CC2
inactive: [1] 62.7 µM | [2] 55.7 µM | [3] 43.2 µM | [4] 47.9 µM | [15] > 100 µM | [5] > 100 µM | [6] 82.8 µM | [7] 92.9 µM | [8] > 100 µM | [17] > 100 µM | [9] > 100 µM | [11] 74.5 µM | [12] > 100 µM | [13] > 100 µM | [14] 23.7 µM

CC1(C)Oc2ccccc2N2O[C@@H]3C(=O)N(c4ccccc4)C(=O)[C@@H]3C21c1ccccc1 (some centres not stated)
inactive: [2] 20.1 µM | [3] 28.7 µM | [4] 29 µM | [5] 28.9 µM | [6] 30.6 µM | [7] 23 µM | [16] 56.1 µM | [8] 24.9 µM | [17] 20.8 µM | [9] > 100 µM | [11] 21.8 µM | [12] 78.3 µM | [13] 16.8 µM | [14] > 10 µM

CN(C)C(=S)/N=c1\ss/c(=N\C(=S)N(C)C)n1-c1ccc(Cl)cc1
inactive: [1] > 100 µM | [2] > 100 µM | [3] 87.9 µM | [4] > 100 µM | [15] > 100 µM | [5] > 100 µM | [6] > 100 µM | [16] > 100 µM | [8] > 100 µM | [17] > 100 µM | [10] > 100 µM | [12] > 100 µM | [13] > 100 µM | [14] > 100 µM

N#Cc1c(N)c(C(=O)O)nn(-c2cccc(C(F)(F)F)c2)c1=O
inactive: [1] > 100 µM | [2] > 100 µM | [3] 39 µM | [4] > 100 µM | [15] > 100 µM | [5] > 100 µM | [6] > 100 µM | [7] 53 µM | [16] 33.6 µM | [8] > 100 µM | [17] 41 µM | [10] > 100 µM | [11] 60 µM | [12] > 100 µM | [14] > 100 µM

CC(=O)Nc1ccc(C2C(C(=O)Nc3ccccc3)=C(C)NC(C)=C2C(=O)Nc2ccccc2)cc1
inactive: [1] > 79.6 µM | [2] > 100 µM | [3] 64 µM | [4] > 100 µM | [15] > 100 µM | [5] > 100 µM | [6] > 100 µM | [7] > 100 µM | [16] > 100 µM | [8] > 100 µM | [17] > 100 µM | [9] > 100 µM | [11] > 100 µM | [12] > 100 µM | [13] > 100 µM | [14] 39.8 µM

CC1=CC(=O)C(C)(C2=NC(C)(C)CO2)c2ccccc21 (configuration not stated)
inactive: [2] > 100 µM | [3] > 100 µM | [4] > 100 µM | [15] > 100 µM | [5] > 100 µM | [6] > 100 µM | [7] > 100 µM | [16] > 100 µM | [8] > 100 µM | [10] > 100 µM | [11] > 100 µM | [13] > 100 µM | [14] > 100 µM

O=C1C2C(C(=O)N1c1ccccc1)C1c3ccccc3C2C2C(=O)N(c3ccccc3)C(=O)C21 (configuration not stated)
inactive: [1] 10.5 µM | [2] 5.86 µM | [3] 2.46 µM | [4] 26.6 µM | [15] 6.47 µM | [5] 3.71 µM | [6] 6.1 µM | [7] 4.44 µM | [16] > 100 µM | [8] 11.3 µM | [17] 6.71 µM | [9] 3.67 µM | [11] 3.9 µM | [12] 15.1 µM | [14] 2.9 µM
